Laboratory results from PMC10281575, “PfCRT mutations conferring piperaquine resistance in falciparum malaria shape the kinetics of quinoline drug binding and transport” (PLOS Pathogens, 2023).
Values joined by “and” are separate entries in the source; they are usually repeats but may differ in a detail not shown here. Equal entries are not always repeated.

Molecular target: T1, PfCRT^Dd2 (Plasmodium falciparum, UniProt Q8IBZ9, A220S/I356T/K76T/M74I/N326S/N75E/Q271E/R371I)
T1 sequence (Q8IBZ9 1-424 M74I/N75E/K76T/A220S/Q271E/N326S/I356T/R371I): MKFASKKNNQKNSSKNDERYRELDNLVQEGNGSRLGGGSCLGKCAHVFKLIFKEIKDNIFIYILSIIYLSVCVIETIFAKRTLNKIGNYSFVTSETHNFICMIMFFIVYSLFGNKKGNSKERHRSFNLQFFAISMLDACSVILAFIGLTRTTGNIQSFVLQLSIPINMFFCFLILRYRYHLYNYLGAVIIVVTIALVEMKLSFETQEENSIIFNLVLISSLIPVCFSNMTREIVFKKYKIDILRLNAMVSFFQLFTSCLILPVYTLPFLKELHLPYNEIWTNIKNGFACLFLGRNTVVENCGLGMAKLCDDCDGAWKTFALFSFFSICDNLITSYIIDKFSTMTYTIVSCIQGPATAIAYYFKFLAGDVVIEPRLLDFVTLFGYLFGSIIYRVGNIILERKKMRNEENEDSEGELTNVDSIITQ
Experiment: Radiolabeled drug uptake (transport assay) in Xenopus laevis oocytes expressing PfCRT^Dd2
Assay type: cell-based
Parameters: expressed in transfected cells; host or cells: Xenopus laevis oocytes injected with in vitro transcribed RNA (pSP64T)
Conditions: for Vmax, maximal velocity of drug transport / Km: Michaelis-Menten fit, 10-500 μM drug; for Km: read-out: KM, Michaelis constant
Experimental: The two kinetic parameters were derived by fitting the Michaelis-Menten equation to the kinetic data (Table 1).
Adult female X. laevis frogs (purchased from NASCO) were anesthetized by submersion in a solution of 0.3% (w/v) 3-amino benzoate methanesulfonate for 15 min. Sections of the ovary were surgically removed and placed in Ca^2+-free ND96 buffer supplemented with 0.1% collagenase D (w/v; Roche), 0.5% BSA (w/v) and 9 mM Na2HPO4 at 18°C for 14–16 h while gently shaking. The oocytes were then washed several times with ND96 buffer (5 mM HEPES, pH 7.5, 96 mM NaCl, 2 mM KCl, 1.8 mM CaCl2, 1 mM MgCl2), supplemented with […] gentamycin. Healthy-looking stage V-VI oocytes were manually selected and randomly grouped for injection. A codon-optimized coding sequence of PfCRT was subcloned into the pSP64T expression vector and subsequently linearized using the restriction endonuclease BamHI or SalI (New England Biolabs GmbH). RNA for injection was transcribed in vitro using the mMESSAGE mMACHINE SP6 Transcription kit (Ambion), diluted with nuclease-free water to a final concentration of 0.6 μg/μL and stored at -80°C. RNA was injected using precision-bore glass capillary tubes (3.5-inch glass capillaries; Drummond Scientific Co.), which were pulled on a vertical puller (P-87 Flaming/Brown micropipette puller, Sutter Instrument Co.) and graduated. The micropipettes were connected to a microinjector (Nanoject II Auto-Nanoliter Injector, Drummond Scientific Co.). Injection was conducted under stereomicroscopic control. 50 nL of nuclease-free water alone (control oocytes) or 50 nL of nuclease-free water containing 30 ng of RNA was injected per oocyte. Injected oocytes were kept for 72 h at 18°C in ND96 buffer with two daily buffer changes before being used for further experiments.
Drug transport assays were performed as previously described. Briefly, measurements of radiolabeled drug uptake were made over 1 h, unless otherwise specified. […] Where specified, one or more unlabeled drugs were also present at the indicated concentrations. […] The uptake assays were terminated by removing the oocytes from the reaction medium and washing them three times with 2 mL of ice-cold ND96 buffer. Each oocyte was transferred to a separate scintillation vial and lysed by the addition of 200 μL of a 5% SDS solution. The radioactivity in the sample was measured using a liquid scintillation analyser Tri-Carb 4910 TR (PerkinElmer). Water-injected oocytes were analyzed in parallel as a negative control. The buffer from each condition was measured in duplicate in parallel to each experiment to transform counts per minute into pmol of drug. Drug uptake attributable to PfCRT was determined by subtracting the background uptake from water-injected oocytes from that of PfCRT-expressing oocytes. In all cases, at least three independent experiments were performed on oocytes from different frogs, and for each condition in an experiment, measurements were made from 10 oocytes per treatment.

[1] = 50 μM PPQ, pH 6.0, total uptake, one value per biological replicate
[2] = 50 μM PPQ, pH 6.0, water-injected uptake subtracted, per replicate
[3] = 60 min, pH 6, per biological replicate
[4] = 50 μM CQ, pH 6.0, total uptake, one value per biological replicate
[5] = 50 μM CQ, pH 6.0, water-injected uptake subtracted, per replicate

SMILES: Clc1ccc2c(N3CCN(CCCN4CCN(c5ccnc6cc(Cl)ccc56)CC4)CC3)ccnc2c1 [PPQ, piperaquine]
- PfCRTDd2-mediated PPQ uptake at 10 µM PPQ (10 µM PPQ, single replicates): 7.56 pmol oocyte-1 h-1 and 10.37 pmol oocyte-1 h-1 and 9.52 pmol oocyte-1 h-1
- PfCRTDd2 PPQ uptake at 10 min [1]: 37.95 pmol oocyte-1 and 17.31 pmol oocyte-1 and 66.26 pmol oocyte-1 and 58.58 pmol oocyte-1 and 53.50 pmol oocyte-1 and 34.40 pmol oocyte-1
- PfCRTDd2 PPQ uptake at 30 min [1]: 69.53 pmol oocyte-1 and 108.95 pmol oocyte-1 and 50.26 pmol oocyte-1
- PfCRTDd2 PPQ uptake at 60 min [1]: 123.14 pmol oocyte-1 and 94.65 pmol oocyte-1 and 103.77 pmol oocyte-1 and 219.78 pmol oocyte-1 and 140.45 pmol oocyte-1 and 145.26 pmol oocyte-1
- PfCRTDd2 PPQ uptake at 90 min [1]: 183.05 pmol oocyte-1 and 183.06 pmol oocyte-1 and 147.41 pmol oocyte-1
- PfCRTDd2 PPQ uptake at 120 min [1]: 118.72 pmol oocyte-1 and 197.79 pmol oocyte-1 and 316.81 pmol oocyte-1 and 143.54 pmol oocyte-1 and 477.33 pmol oocyte-1
- PfCRTDd2 PPQ uptake at 180 min [1]: 167.85 pmol oocyte-1 and 274.70 pmol oocyte-1 and 265.00 pmol oocyte-1
- PfCRTDd2-mediated PPQ uptake at 10 min [2]: 17.92 pmol oocyte-1 and 6.16 pmol oocyte-1 and 19.07 pmol oocyte-1 and 16.58 pmol oocyte-1 and 10.50 pmol oocyte-1 and 10.36 pmol oocyte-1
- PfCRTDd2-mediated PPQ uptake at 30 min [2]: 29.61 pmol oocyte-1 and 27.31 pmol oocyte-1 and 14.01 pmol oocyte-1
- PfCRTDd2-mediated PPQ uptake at 60 min [2]: 28.14 pmol oocyte-1 and 21.87 pmol oocyte-1 and 89.78 pmol oocyte-1 and 46.28 pmol oocyte-1 and 30.01 pmol oocyte-1 and 33.33 pmol oocyte-1
- PfCRTDd2-mediated PPQ uptake at 90 min [2]: 41.43 pmol oocyte-1 and 74.11 pmol oocyte-1 and 31.93 pmol oocyte-1
- PfCRTDd2-mediated PPQ uptake at 120 min [2]: 30.25 pmol oocyte-1 and 19.89 pmol oocyte-1 and 85.94 pmol oocyte-1 and 81.35 pmol oocyte-1 and 70.65 pmol oocyte-1
- PfCRTDd2-mediated PPQ uptake at 180 min [2]: 32.52 pmol oocyte-1 and 76.65 pmol oocyte-1 and 72.50 pmol oocyte-1
- PfCRTDd2-mediated PPQ uptake at 50 µM PPQ (50 µM PPQ, single replicates): 28.14 pmol oocyte-1 h-1 and 21.87 pmol oocyte-1 h-1 and 89.78 pmol oocyte-1 h-1 and 46.28 pmol oocyte-1 h-1 and 30.01 pmol oocyte-1 h-1 and 33.33 pmol oocyte-1 h-1 and 10.90 pmol oocyte-1 h-1
- PfCRTDd2-mediated PPQ uptake at 100 µM PPQ (100 µM PPQ, single replicates): 59.97 pmol oocyte-1 h-1 and 45.22 pmol oocyte-1 h-1 and 64.52 pmol oocyte-1 h-1
- PfCRTDd2-mediated PPQ uptake at 200 µM PPQ (200 µM PPQ, single replicates): 87.13 pmol oocyte-1 h-1 and 109.05 pmol oocyte-1 h-1 and 57.84 pmol oocyte-1 h-1
- PfCRTDd2-mediated PPQ uptake at 300 µM PPQ (300 µM PPQ, single replicates): 90.42 pmol oocyte-1 h-1 and 110.91 pmol oocyte-1 h-1 and 77.44 pmol oocyte-1 h-1
- PfCRTDd2-mediated PPQ uptake at 400 µM PPQ (400 µM PPQ, single replicates): 113.37 pmol oocyte-1 h-1 and 109.88 pmol oocyte-1 h-1 and 74.49 pmol oocyte-1 h-1
- PfCRTDd2-mediated PPQ uptake at 500 µM PPQ (500 µM PPQ, single replicates): 118.94 pmol oocyte-1 h-1 and 82.44 pmol oocyte-1 h-1 and 112.35 pmol oocyte-1 h-1
- PfCRTDd2-mediated PPQ uptake at 10 µM PPQ [3]: 7.56 pmol oocyte-1 h-1 and 10.37 pmol oocyte-1 h-1 and 9.52 pmol oocyte-1 h-1
- PfCRTDd2-mediated PPQ uptake at 50 µM PPQ [3]: 33.33 pmol oocyte-1 h-1 and 10.9 pmol oocyte-1 h-1 and 28.14 pmol oocyte-1 h-1 and 21.87 pmol oocyte-1 h-1 and 89.78 pmol oocyte-1 h-1 and 46.28 pmol oocyte-1 h-1 and 30.01 pmol oocyte-1 h-1
- PfCRTDd2-mediated PPQ uptake at 100 µM PPQ [3]: 59.97 pmol oocyte-1 h-1 and 45.22 pmol oocyte-1 h-1 and 64.52 pmol oocyte-1 h-1
- PfCRTDd2-mediated PPQ uptake at 200 µM PPQ [3]: 87.13 pmol oocyte-1 h-1 and 109.05 pmol oocyte-1 h-1 and 57.84 pmol oocyte-1 h-1
- PfCRTDd2-mediated PPQ uptake at 300 µM PPQ [3]: 90.42 pmol oocyte-1 h-1 and 110.91 pmol oocyte-1 h-1 and 77.44 pmol oocyte-1 h-1
- PfCRTDd2-mediated PPQ uptake at 400 µM PPQ [3]: 113.37 pmol oocyte-1 h-1 and 109.88 pmol oocyte-1 h-1 and 74.49 pmol oocyte-1 h-1
- PfCRTDd2-mediated PPQ uptake at 500 µM PPQ [3]: 118.94 pmol oocyte-1 h-1 and 82.44 pmol oocyte-1 h-1 and 112.35 pmol oocyte-1 h-1
- Vmax, maximal velocity of drug transport (60 min, pH 6): 131 ± 3 pmol oocyte^-1 h^-1 and 259.88 pmol oocyte^-1 h^-1
- Km (60 min, pH 6): 125 ± 9 µM

SMILES: CCN(CC)CCCC(C)Nc1ccnc2cc(Cl)ccc12 (stereo not drawn) [CQ, chloroquine]
- PfCRTDd2-mediated CQ uptake at 10 µM CQ (10 µM CQ, single replicates): 0.97 pmol oocyte-1 h-1 and 1.33 pmol oocyte-1 h-1 and 1.00 pmol oocyte-1 h-1
- PfCRTDd2 uptake of CQ at 10 min [4]: 5.12 pmol oocyte-1 and 4.60 pmol oocyte-1 and 2.93 pmol oocyte-1 and 4.96 pmol oocyte-1
- PfCRTDd2 uptake of CQ at 30 min [4]: 6.73 pmol oocyte-1 and 14.34 pmol oocyte-1 and 5.71 pmol oocyte-1
- PfCRTDd2 uptake of CQ at 60 min [4]: 19.28 pmol oocyte-1 and 12.33 pmol oocyte-1 and 10.23 pmol oocyte-1 and 14.77 pmol oocyte-1
- PfCRTDd2 uptake of CQ at 90 min [4]: 15.72 pmol oocyte-1 and 19.85 pmol oocyte-1 and 18.63 pmol oocyte-1 and 19.17 pmol oocyte-1
- PfCRTDd2 uptake of CQ at 120 min [4]: 20.73 pmol oocyte-1 and 30.99 pmol oocyte-1 and 21.07 pmol oocyte-1
- PfCRTDd2 uptake of CQ at 180 min [4]: 26.87 pmol oocyte-1 and 30.32 pmol oocyte-1 and 26.73 pmol oocyte-1 and 25.67 pmol oocyte-1
- PfCRTDd2-mediated CQ uptake at 10 min [5]: 1.03 pmol oocyte-1 and 0.90 pmol oocyte-1 and 1.98 pmol oocyte-1 and 0.91 pmol oocyte-1
- PfCRTDd2-mediated CQ uptake at 30 min [5]: 1.52 pmol oocyte-1 and 5.01 pmol oocyte-1 and 4.35 pmol oocyte-1
- PfCRTDd2-mediated CQ uptake at 60 min [5]: 4.91 pmol oocyte-1 and 4.76 pmol oocyte-1 and 7.49 pmol oocyte-1 and 5.04 pmol oocyte-1
- PfCRTDd2-mediated CQ uptake at 120 min [5]: 9.09 pmol oocyte-1 and 10.40 pmol oocyte-1 and 9.67 pmol oocyte-1
- PfCRTDd2-mediated CQ uptake at 180 min [5]: 13.62 pmol oocyte-1 and 9.61 pmol oocyte-1 and 9.37 pmol oocyte-1 and 10.85 pmol oocyte-1
- PfCRTDd2-mediated CQ uptakeat 90 min [5]: 7.12 pmol oocyte-1 and 4.31 pmol oocyte-1 and 9.50 pmol oocyte-1 and 9.09 pmol oocyte-1
- PfCRTDd2-mediated CQ uptake at 50 µM CQ (50 µM CQ, single replicates): 3.98 pmol oocyte-1 h-1 and 2.97 pmol oocyte-1 h-1 and 3.90 pmol oocyte-1 h-1 and 4.91 pmol oocyte-1 h-1 and 4.76 pmol oocyte-1 h-1 and 7.49 pmol oocyte-1 h-1 and 10.46 pmol oocyte-1 h-1 and 5.04 pmol oocyte-1 h-1
- PfCRTDd2-mediated CQ uptake at 100 µM CQ (100 µM CQ, single replicates): 9.74 pmol oocyte-1 h-1 and 9.30 pmol oocyte-1 h-1 and 7.99 pmol oocyte-1 h-1
- PfCRTDd2-mediated CQ uptake at 200 µM CQ (200 µM CQ, single replicates): 17.86 pmol oocyte-1 h-1 and 9.84 pmol oocyte-1 h-1 and 13.66 pmol oocyte-1 h-1 and 12.77 pmol oocyte-1 h-1
- PfCRTDd2-mediated CQ uptake at 300 µM CQ (300 µM CQ, single replicates): 20.89 pmol oocyte-1 h-1 and 20.25 pmol oocyte-1 h-1 and 12.53 pmol oocyte-1 h-1
- PfCRTDd2-mediated CQ uptake at 400 µM CQ (400 µM CQ, single replicates): 20.30 pmol oocyte-1 h-1 and 20.79 pmol oocyte-1 h-1 and 20.10 pmol oocyte-1 h-1
- PfCRTDd2-mediated CQ uptake at 500 µM CQ (500 µM CQ, single replicates): 20.49 pmol oocyte-1 h-1 and 20.91 pmol oocyte-1 h-1 and 20.75 pmol oocyte-1 h-1 and 25.01 pmol oocyte-1 h-1
- PfCRTDd2-mediated CQ uptake at 10 µM CQ [3]: 0.97 pmol oocyte-1 h-1 and 1.33 pmol oocyte-1 h-1 and 1.00 pmol oocyte-1 h-1
- PfCRTDd2-mediated CQ uptake at 50 µM CQ [3]: 3.98 pmol oocyte-1 h-1 and 2.97 pmol oocyte-1 h-1 and 3.90 pmol oocyte-1 h-1 and 4.91 pmol oocyte-1 h-1 and 4.76 pmol oocyte-1 h-1 and 7.49 pmol oocyte-1 h-1 and 10.46 pmol oocyte-1 h-1 and 5.04 pmol oocyte-1 h-1
- PfCRTDd2-mediated CQ uptake at 100 µM CQ [3]: 9.74 pmol oocyte-1 h-1 and 9.30 pmol oocyte-1 h-1 and 7.99 pmol oocyte-1 h-1
- PfCRTDd2-mediated CQ uptake at 200 µM CQ [3]: 17.86 pmol oocyte-1 h-1 and 9.84 pmol oocyte-1 h-1 and 13.66 pmol oocyte-1 h-1 and 12.77 pmol oocyte-1 h-1
- PfCRTDd2-mediated CQ uptake at 300 µM CQ [3]: 20.89 pmol oocyte-1 h-1 and 20.25 pmol oocyte-1 h-1 and 12.53 pmol oocyte-1 h-1
- PfCRTDd2-mediated CQ uptake at 400 µM CQ [3]: 20.30 pmol oocyte-1 h-1 and 20.79 pmol oocyte-1 h-1 and 20.10 pmol oocyte-1 h-1
- PfCRTDd2-mediated CQ uptake at 500 µM CQ [3]: 20.49 pmol oocyte-1 h-1 and 20.91 pmol oocyte-1 h-1 and 20.75 pmol oocyte-1 h-1 and 25.01 pmol oocyte-1 h-1
- Vmax, maximal velocity of drug transport (60 min, pH 6): 33 ± 1 pmol oocyte^-1 h^-1
- Km (60 min, pH 6): 260 ± 10 µM
- PfCRTDd2-mediated CQ transport (S6 Fig, per biological replicate): 7.120 pmol oocyte-1 h-1 and 4.130 pmol oocyte-1 h-1 and 5.320 pmol oocyte-1 h-1
